Patent publication US11638427B2, “Methods and compositions for altering secondary metabolites in plants” (Impello Biosciences, Inc, priority 2020, dated 2023)
Values joined by “and” are separate entries in the source; they are usually repeats but may differ in a detail not shown here. Identical values can stand only once.

System: CBDRx Cherry hemp clones
Assay: Foliar spray of MS, MDJ and MS+MDJ on hemp clones: biomass, cannabinoid and terpene analysis
Type: in vivo, Cannabis spp.
Parameters: CBDA / CBD / THCA / Total CBG / Total cannabinoids: unit not given here
Conditions: for plants died before the end of the experiment: four plants per treatment group
Protocol: Methyl salicylate (MS) is an antagonistic compound to the jasmonates. To investigate the effect of MS alone and in conjunction with MDJ, MS (CAS No.: 119-36-8), MDJ, and the combination (MS+MDJ) were applied by foliar spray to CBDRx Cherry hemp clones once per week during both vegetative and flowering phases. Plants were transplanted into 1-gallon pots with Red's soil and put into vegetative light cycle (18L/6D). […] Plants were grown under a total of 12 Boost (Thrive Agritech, NY) 130-watt LED lights set to 18L: 6D photoperiod during the vegetative phase (2 weeks) and this was followed by a 12L: 12D photoperiod during the flowering phase (7 weeks), using the same lighting fixtures. Throughout the nine weeks, all plants were watered when needed with Jack's nutrients.
MS or MDJ treatments were applied at the following concentrations: [1 mM], [4.25 mM], [7.5 mM] and [10 mM]. Each concentration was prepared from a one molar stock solution diluted with RO water and TWEEN®-20 (1M stock) was added. Each plant was sprayed till dripping, which was approximately 50-75 ml. To apply the combination of the two biochemicals, MS and MDJ were sprayed separately but simultaneously, to ensure each compound was applied evenly onto the plant. Each compound was applied using a SPRAYMASTER Chemical Sprayer (King of Prussia, Pa.).
Plants were harvested two months after transplant. After harvesting, plants were air dried at room temperature for two weeks. Once plants were sufficiently dry, above ground dry weights were recorded and dried flower samples were collected and sent to a third-party lab for terpene and cannabinoid analysis. Two plants (#3 and #4) in treatment group MDJ [7.5] mM, two plants (#3 and #4) in MS [4.25] mM, one plant (#4) in MS [7.5], and one plant (#4) in MDJ [10] died before the end of the experiment.

[1] = 1 mM foliar spray, Avg. of group
[2] = 1 mM foliar spray, individual plant
[3] = 4.25 mM foliar spray, Avg. of group
[4] = 4.25 mM foliar spray, individual plant
[5] = 7.5 mM foliar spray, Avg. of group
[6] = 7.5 mM foliar spray, individual plant
[7] = 10 mM foliar spray, Avg. of group
[8] = 10 mM foliar spray, individual plant

SMILES: COC(=O)c1ccccc1O [MS, Methyl salicylate]
- Alpha-bisabolol [1]: 0.08263 % wt/wt
- Alpha-humulene [1]: 0.07955 % wt/wt
- Beta-caryophyllene [1]: 0.2069 % wt/wt
- CBCA [1]: 0.715
- CBD [1]: 0.105
- CBDA [1]: 13.675
- CBGA [1]: 0.365
- Limonene [1]: 0.1101 % wt/wt
- THCA [1]: 0.6
- Total CBD [1]: 12.1025
- Total CBG [1]: 0.32
- Total cannabinoids [1]: 15.46
- Total d9THC [1]: 0.525
- alpha-pinene [1]: 0 % wt/wt
- beta-myrcene [1]: 0.8188 % wt/wt
- beta-pinene [1]: 0.02077 % wt/wt
- total terpenes [1]: 1.435 % wt/wt
- Alpha-bisabolol [2]: 0.0925 % wt/wt and 0.1053 % wt/wt and 0.1236 % wt/wt and 0.00912 % wt/wt
- Alpha-humulene [2]: 0.076 % wt/wt and 0.0724 % wt/wt and 0.0922 % wt/wt and 0.0776 % wt/wt
- Beta-caryophyllene [2]: 0.1974 % wt/wt and 0.1911 % wt/wt and 0.243 % wt/wt and 0.1959 % wt/wt
- CBCA [2]: 0.82 and 0.64 and 0.67 and 0.73
- CBD [2]: 0.13 and 0 and 0.12 and 0.17
- CBDA [2]: 15.19 and 12.85 and 13.24 and 13.42
- CBGA [2]: 0.42 and 0.34 and 0.32 and 0.38
- Limonene [2]: 0.1096 % wt/wt and 0.11 % wt/wt and 0.1101 % wt/wt and 0.1106 % wt/wt
- THCA [2]: 0.66 and 0.56 and 0.58 and 0.6
- Total CBD [2]: 13.45 and 11.27 and 11.74 and 11.95
- Total CBG [2]: 0.37 and 0.3 and 0.28 and 0.33
- Total cannabinoids [2]: 17.22 and 14.39 and 14.93 and 15.3
- Total d9THC [2]: 0.58 and 0.49 and 0.51 and 0.52
- alpha-pinene [2]: 0 % wt/wt
- beta-myrcene [2]: 0.7692 % wt/wt and 0.8926 % wt/wt and 0.845 % wt/wt and 0.7684 % wt/wt
- beta-pinene [2]: 0.0215 % wt/wt and 0.0201 % wt/wt and 0.021 % wt/wt and 0.0205 % wt/wt
- total terpenes [2]: 1.36 % wt/wt (2×) and 1.48 % wt/wt and 1.54 % wt/wt
- Alpha-bisabolol [3]: 0.1143 % wt/wt
- Alpha-humulene [3]: 0.0794 % wt/wt
- Beta-caryophyllene [3]: 0.1996 % wt/wt
- CBCA [3]: 0.61
- CBD [3]: 0.16
- CBDA [3]: 11.8
- CBGA [3]: 0.275
- Limonene [3]: 0.1 % wt/wt
- THCA [3]: 0.51
- Total CBD [3]: 10.505
- Total CBG [3]: 0.24
- Total cannabinoids [3]: 13.355
- Total d9THC [3]: 0.45
- alpha-pinene [3]: 0 % wt/wt
- beta-myrcene [3]: 0.7751 % wt/wt
- beta-pinene [3]: 0.0197 % wt/wt
- total terpenes [3]: 1.38 % wt/wt
- plants died before the end of the experiment (4.25 mM foliar spray): two plants
- Alpha-bisabolol [4]: 0.1185 % wt/wt and 0.1101 % wt/wt
- Alpha-humulene [4]: 0.0819 % wt/wt and 0.0769 % wt/wt
- Beta-caryophyllene [4]: 0.2091 % wt/wt and 0.19 % wt/wt
- CBCA [4]: 0.61
- CBD [4]: 0.15 and 0.17
- CBDA [4]: 11.88 and 11.72
- CBGA [4]: 0.27 and 0.28
- Limonene [4]: 0.1042 % wt/wt and 0.0958 % wt/wt
- THCA [4]: 0.52 and 0.5
- Total CBD [4]: 10.57 and 10.44
- Total CBG [4]: 0.24
- Total cannabinoids [4]: 13.43 and 13.28
- Total d9THC [4]: 0.46 and 0.44
- alpha-pinene [4]: 0 % wt/wt
- beta-myrcene [4]: 0.8061 % wt/wt and 0.744 % wt/wt
- beta-pinene [4]: 0.0209 % wt/wt and 0.0185 % wt/wt
- total terpenes [4]: 1.43 % wt/wt and 1.33 % wt/wt
- Alpha-bisabolol [5]: 0.1235 % wt/wt
- Alpha-humulene [5]: 0.09093 % wt/wt
- Beta-caryophyllene [5]: 0.23 % wt/wt
- CBCA [5]: 0.66
- CBD [5]: 0.1833
- CBDA [5]: 12.833
- CBGA [5]: 0.41
- Limonene [5]: 0.09533 % wt/wt
- THCA [5]: 0.57
- Total CBD [5]: 11.44
- Total CBG [5]: 0.356
- Total cannabinoids [5]: 14.656
- Total d9THC [5]: 0.5
- alpha-pinene [5]: 0 % wt/wt
- beta-myrcene [5]: 0.7014 % wt/wt
- beta-pinene [5]: 0 % wt/wt
- total terpenes [5]: 1.343 % wt/wt
- plants died before the end of the experiment (7.5 mM foliar spray): one plant
- Alpha-bisabolol [6]: 0.1154 % wt/wt and 0.1201 % wt/wt and 0.1349 % wt/wt
- Alpha-humulene [6]: 0.0878 % wt/wt and 0.083 % wt/wt and 0.102 % wt/wt
- Beta-caryophyllene [6]: 0.2204 % wt/wt and 0.2101 % wt/wt and 0.2595 % wt/wt
- CBCA [6]: 0.68 (2×) and 0.62
- CBD [6]: 0.3 and 0.1 and 0.15
- CBDA [6]: 12.97 and 12.23 and 13.3
- CBGA [6]: 0.4 and 0.37 and 0.46
- Limonene [6]: 0.0902 % wt/wt and 0.0968 % wt/wt and 0.099 % wt/wt
- THCA [6]: 0.57 and 0.55 and 0.59
- Total CBD [6]: 11.68 and 10.83 and 11.81
- Total CBG [6]: 0.35 and 0.32 and 0.4
- Total cannabinoids [6]: 14.92 and 13.87 and 15.18
- Total d9THC [6]: 0.5 and 0.48 and 0.52
- alpha-pinene [6]: 0 % wt/wt
- beta-myrcene [6]: 0.6564 % wt/wt and 0.7151 % wt/wt and 0.7328 % wt/wt
- beta-pinene [6]: 0 % wt/wt
- total terpenes [6]: 1.27 % wt/wt and 1.32 % wt/wt and 1.44 % wt/wt
- Alpha-bisabolol [7]: 0.109 % wt/wt
- Alpha-humulene [7]: 0.07612 % wt/wt
- Beta-caryophyllene [7]: 0.1899 % wt/wt
- CBCA [7]: 0.73
- CBD [7]: 0.155
- CBDA [7]: 14.5975
- CBGA [7]: 0.4775
- Limonene [7]: 0.1418 % wt/wt
- THCA [7]: 0.625
- Total CBD [7]: 12.96
- Total CBG [7]: 0.42
- Total cannabinoids [7]: 16.585
- Total d9THC [7]: 0.55
- alpha-pinene [7]: 0.01702 % wt/wt
- beta-myrcene [7]: 1.084 % wt/wt
- beta-pinene [7]: 0.02447 % wt/wt
- total terpenes [7]: 1.725 % wt/wt
- Alpha-bisabolol [8]: 0.1326 % wt/wt and 0.0981 % wt/wt and 0.1139 % wt/wt and 0.0915 % wt/wt
- Alpha-humulene [8]: 0.0912 % wt/wt and 0.0723 % wt/wt and 0.0736 % wt/wt and 0.0674 % wt/wt
- Beta-caryophyllene [8]: 0.2182 % wt/wt and 0.1794 % wt/wt and 0.192 % wt/wt and 0.1699 % wt/wt
- CBCA [8]: 0.71 and 0.73 and 0.72 and 0.76
- CBD [8]: 0.17 and 0.12 and 0.33 and 0
- CBDA [8]: 15.33 and 14.37 and 13.89 and 14.8
- CBGA [8]: 0.5 (2×) and 0.46 and 0.45
- Limonene [8]: 0.213 % wt/wt and 0.1272 % wt/wt and 0.113 % wt/wt and 0.1141 % wt/wt
- THCA [8]: 0.65 and 0.63 (2×) and 0.59
- Total CBD [8]: 13.61 and 12.73 and 12.52 and 12.98
- Total CBG [8]: 0.44 (2×) and 0.4 (2×)
- Total cannabinoids [8]: 17.36 and 16.31 and 15.98 and 16.69
- Total d9THC [8]: 0.57 and 0.55 and 0.52 and 0.56
- alpha-pinene [8]: 0.0398 % wt/wt and 0.0283 % wt/wt and 0 % wt/wt (2×)
- beta-myrcene [8]: 1.6091 % wt/wt and 0.9913 % wt/wt and 0.8332 % wt/wt and 0.9015 % wt/wt
- beta-pinene [8]: 0.0299 % wt/wt and 0.023 % wt/wt and 0.0257 % wt/wt and 0.0193 % wt/wt
- total terpenes [8]: 2.43 % wt/wt and 1.6 % wt/wt and 1.43 % wt/wt and 1.44 % wt/wt
- total terpene content (application of 1 mM or 4.25 mM): increased
- Aboveground fresh weight and dried weight compared to the control plants (at both 1 mM and 10 mM): significantly reduced
